Experimental data reported in the NIST ThermoML archive (doi:10.1016/j.jct.2019.02.011).
Numbers after ± are expanded uncertainties.

Assay: xn = mol fraction of the nth substance listed
Settings: Liquid, Vibrating tube method

COC(=O)OC [dimethyl carbonate] + CCO
mass density [kg/m3]
Settings | 100 kPa | 5000 kPa | 10000 kPa | 15000 kPa | 20000 kPa | 25000 kPa | 30000 kPa | 35000 kPa | 40000 kPa
303.15 K, x1 = 0.0252 | – | – | – | – | – | – | – | 817.99 ± 1.4 | 821.19 ± 1.4
303.15 K, x1 = 0.0506 | – | – | – | – | – | – | – | 827.65 ± 1.4 | 830.86 ± 1.4
303.15 K, x1 = 0.0757 | – | – | – | – | – | – | – | 836.92 ± 1.4 | 840.19 ± 1.4
303.15 K, x1 = 0.1003 | – | – | – | – | – | – | – | 845.76 ± 1.4 | 849.04 ± 1.4
303.15 K, x1 = 0.1508 | – | – | – | – | – | – | – | 863.66 ± 1.4 | 867.01 ± 1.4
303.15 K, x1 = 0.2 | – | – | – | – | – | – | – | 880.45 ± 1.4 | 883.83 ± 1.4
303.15 K, x1 = 0.2547 | – | – | – | – | – | – | – | 898.44 ± 1.4 | 901.89 ± 1.4
303.15 K, x1 = 0.3002 | – | – | – | – | – | – | – | 912.97 ± 1.4 | 916.44 ± 1.4
303.15 K, x1 = 0.3498 | – | – | – | – | – | – | – | 928.31 ± 1.5 | 931.85 ± 1.5
303.15 K, x1 = 0.4 | – | – | – | – | – | – | – | 943.37 ± 1.5 | 946.93 ± 1.5
303.15 K, x1 = 0.449 | – | – | – | – | – | – | – | 957.5 ± 1.5 | 961.08 ± 1.5
303.15 K, x1 = 0.4996 | – | – | – | – | – | – | – | 971.61 ± 1.5 | 975.21 ± 1.5
303.15 K, x1 = 0.5507 | – | – | – | – | – | – | – | 985.38 ± 1.5 | 989 ± 1.5
303.15 K, x1 = 0.6005 | – | – | – | – | – | – | – | 998.28 ± 1.5 | 1001.97 ± 1.5
303.15 K, x1 = 0.6455 | – | – | – | – | – | – | – | 1009.61 ± 1.5 | 1013.31 ± 1.5
303.15 K, x1 = 0.6931 | – | – | – | – | – | – | – | 1021.1 ± 1.5 | 1024.81 ± 1.5
303.15 K, x1 = 0.7502 | – | – | – | – | – | – | – | 1034.38 ± 1.5 | 1038.11 ± 1.5
303.15 K, x1 = 0.8009 | – | – | – | – | – | – | – | 1045.74 ± 1.5 | 1049.49 ± 1.6
303.15 K, x1 = 0.8505 | – | – | – | – | – | – | 1052.73 ± 1.6 | 1056.47 ± 1.6 | 1060.22 ± 1.6
303.15 K, x1 = 0.9008 | – | – | – | – | – | – | 1063.26 ± 1.6 | 1067 ± 1.6 | 1070.77 ± 1.6
303.15 K, x1 = 0.9255 | – | – | – | – | – | – | 1068.3 ± 1.6 | 1072.05 ± 1.6 | 1075.83 ± 1.6
303.15 K, x1 = 0.9477 | – | – | – | – | – | – | 1072.75 ± 1.6 | 1076.5 ± 1.6 | 1080.28 ± 1.6
303.15 K, x1 = 0.9735 | – | – | – | – | – | – | 1077.83 ± 1.6 | 1081.57 ± 1.6 | 1085.37 ± 1.6
303.15 K, x1 = 1 | – | – | – | – | – | – | 1082.9 ± 0.61 | 1086.6 ± 0.63 | 1090.4 ± 0.64
308.15 K, x1 = 0.0252 | 785.78 ± 1.4 | 790.2 ± 1.4 | 794.7 ± 1.4 | 798.95 ± 1.4 | 803.01 ± 1.4 | 806.85 ± 1.4 | 810.55 ± 1.4 | 814.13 ± 1.4 | 817.65 ± 1.4
308.15 K, x1 = 0.0506 | 795.01 ± 1.4 | 799.48 ± 1.4 | 804.03 ± 1.4 | 808.34 ± 1.4 | 812.45 ± 1.4 | 816.29 ± 1.4 | 820.04 ± 1.4 | 823.67 ± 1.4 | 827.2 ± 1.4
308.15 K, x1 = 0.0757 | 804.1 ± 1.4 | 808.57 ± 1.4 | 813.12 ± 1.4 | 817.43 ± 1.4 | 821.55 ± 1.4 | 825.44 ± 1.4 | 829.2 ± 1.4 | 832.83 ± 1.4 | 836.41 ± 1.4
308.15 K, x1 = 0.1003 | 812.76 ± 1.4 | 817.27 ± 1.4 | 821.84 ± 1.4 | 826.15 ± 1.4 | 830.31 ± 1.4 | 834.21 ± 1.4 | 837.98 ± 1.4 | 841.6 ± 1.4 | 845.19 ± 1.4
308.15 K, x1 = 0.1508 | 830.19 ± 1.4 | 834.75 ± 1.4 | 839.38 ± 1.4 | 843.74 ± 1.4 | 847.91 ± 1.4 | 851.87 ± 1.4 | 855.69 ± 1.4 | 859.36 ± 1.4 | 862.96 ± 1.4
308.15 K, x1 = 0.2 | 846.57 ± 1.4 | 851.18 ± 1.4 | 855.82 ± 1.4 | 860.24 ± 1.4 | 864.46 ± 1.4 | 868.48 ± 1.4 | 872.26 ± 1.4 | 875.98 ± 1.4 | 879.58 ± 1.4
308.15 K, x1 = 0.2547 | 864.3 ± 1.4 | 868.96 ± 1.4 | 873.61 ± 1.4 | 878.08 ± 1.4 | 882.31 ± 1.4 | 886.33 ± 1.4 | 890.22 ± 1.4 | 893.94 ± 1.4 | 897.55 ± 1.4
308.15 K, x1 = 0.3002 | 878.53 ± 1.4 | 883.23 ± 1.4 | 887.94 ± 1.4 | 892.42 ± 1.4 | 896.65 ± 1.4 | 900.73 ± 1.4 | 904.63 ± 1.4 | 908.34 ± 1.4 | 911.96 ± 1.4
308.15 K, x1 = 0.3498 | 893.6 ± 1.4 | 898.3 ± 1.4 | 903.03 ± 1.4 | 907.51 ± 1.4 | 911.79 ± 1.4 | 915.88 ± 1.4 | 919.79 ± 1.4 | 923.55 ± 1.4 | 927.17 ± 1.5
308.15 K, x1 = 0.4 | 908.35 ± 1.4 | 913.1 ± 1.4 | 917.89 ± 1.4 | 922.37 ± 1.4 | 926.66 ± 1.4 | 930.75 ± 1.4 | 934.72 ± 1.5 | 938.43 ± 1.5 | 942.06 ± 1.5
308.15 K, x1 = 0.449 | 922.34 ± 1.4 | 927.13 ± 1.4 | 931.93 ± 1.4 | 936.46 ± 1.4 | 940.76 ± 1.5 | 944.91 ± 1.5 | 948.88 ± 1.5 | 952.59 ± 1.5 | 956.23 ± 1.5
308.15 K, x1 = 0.4996 | 936.23 ± 1.4 | 941.03 ± 1.5 | 945.84 ± 1.5 | 950.37 ± 1.5 | 954.72 ± 1.5 | 958.88 ± 1.5 | 962.91 ± 1.5 | 966.61 ± 1.5 | 970.26 ± 1.5
308.15 K, x1 = 0.5507 | 949.8 ± 1.5 | 954.65 ± 1.5 | 959.47 ± 1.5 | 964 ± 1.5 | 968.36 ± 1.5 | 972.52 ± 1.5 | 976.56 ± 1.5 | 980.26 ± 1.5 | 983.92 ± 1.5
308.15 K, x1 = 0.6005 | 962.5 ± 1.5 | 967.34 ± 1.5 | 972.17 ± 1.5 | 976.76 ± 1.5 | 981.12 ± 1.5 | 985.34 ± 1.5 | 989.34 ± 1.5 | 993.09 ± 1.5 | 996.75 ± 1.5
308.15 K, x1 = 0.6455 | 973.59 ± 1.5 | 978.43 ± 1.5 | 983.27 ± 1.5 | 987.86 ± 1.5 | 992.27 ± 1.5 | 996.5 ± 1.5 | 1000.55 ± 1.5 | 1004.29 ± 1.5 | 1007.96 ± 1.5
308.15 K, x1 = 0.6931 | 984.98 ± 1.5 | 989.86 ± 1.5 | 994.71 ± 1.5 | 999.31 ± 1.5 | 1003.72 ± 1.5 | 1007.95 ± 1.5 | 1012.02 ± 1.5 | 1015.76 ± 1.5 | 1019.43 ± 1.5
308.15 K, x1 = 0.7502 | 998.06 ± 1.5 | 1002.99 ± 1.5 | 1007.85 ± 1.5 | 1012.45 ± 1.5 | 1016.86 ± 1.5 | 1021.1 ± 1.5 | 1025.17 ± 1.5 | 1028.91 ± 1.5 | 1032.59 ± 1.5
308.15 K, x1 = 0.8009 | 1009.32 ± 1.5 | 1014.25 ± 1.5 | 1019.12 ± 1.5 | 1023.72 ± 1.5 | 1028.14 ± 1.5 | 1032.39 ± 1.5 | 1036.46 ± 1.5 | 1040.2 ± 1.5 | 1043.88 ± 1.5
308.15 K, x1 = 0.8505 | 1019.95 ± 1.5 | 1024.88 ± 1.5 | 1029.76 ± 1.5 | 1034.36 ± 1.5 | 1038.78 ± 1.5 | 1043.04 ± 1.5 | 1047.12 ± 1.5 | 1050.86 ± 1.6 | 1054.54 ± 1.6
308.15 K, x1 = 0.9008 | 1030.34 ± 1.5 | 1035.27 ± 1.5 | 1040.16 ± 1.5 | 1044.76 ± 1.5 | 1049.19 ± 1.5 | 1053.46 ± 1.6 | 1057.58 ± 1.6 | 1061.29 ± 1.6 | 1064.96 ± 1.6
308.15 K, x1 = 0.9255 | 1035.32 ± 1.5 | 1040.27 ± 1.5 | 1045.13 ± 1.5 | 1049.75 ± 1.5 | 1054.19 ± 1.6 | 1058.45 ± 1.6 | 1062.57 ± 1.6 | 1066.29 ± 1.6 | 1069.95 ± 1.6
308.15 K, x1 = 0.9477 | 1039.72 ± 1.5 | 1044.68 ± 1.5 | 1049.54 ± 1.5 | 1054.15 ± 1.6 | 1058.61 ± 1.6 | 1062.87 ± 1.6 | 1066.99 ± 1.6 | 1070.7 ± 1.6 | 1074.34 ± 1.6
308.15 K, x1 = 0.9735 | 1044.8 ± 1.5 | 1049.73 ± 1.5 | 1054.59 ± 1.6 | 1059.21 ± 1.6 | 1063.67 ± 1.6 | 1067.93 ± 1.6 | 1072.03 ± 1.6 | 1075.71 ± 1.6 | 1079.36 ± 1.6
308.15 K, x1 = 1 | 1049.91 ± 0.56 | 1054.84 ± 0.56 | 1059.69 ± 0.57 | 1064.3 ± 0.58 | 1068.73 ± 0.59 | 1073 ± 0.6 | 1077.1 ± 0.61 | 1080.78 ± 0.62 | 1084.38 ± 0.63
